Test results: paper doi:10.1101/2025.03.14.643303, “A genome-scale drug discovery pipeline uncovers new therapeutic targets and a unique p97 allosteric binding site in Schistosoma mansoni” (bioRxiv, 2025)
Where two headings read alike, the source gives them in different places.

Experiments:
adult S. mansoni worms = experiment: Treatment of adult S. mansoni worms in culture with inhibitors (attachment to tissue culture substrate, morphology; single 10 μM and dose-response EC50); format: cell-based, Schistosoma mansoni; details: for EC50: Schistosoma mansoni; for effect on adult worms: benzoxazole propiolamide series, treated 72 hours, monitored until D5
Procedure: Adult S. mansoni (NMRI strain) (6–7 weeks post-infection) worms were harvested from infected female Swiss Webster mice by hepatic portal vein perfusion using 37°C DMEM (Mediatech, Manassas, VA), 8% Horse Serum, and heparin.
Roughly 5 adult worm pairs were placed in 3mL Basch medium in a 12-well culture vessel, and incubated at 37°C, 5% CO2 for the length of the experiment. Compound was administered at D0, D1, and D2, media and drug refreshed every 24 hr. Worms were then allowed to remain in culture until D5, where a final assessment of worm attachment to tissue culture substate was made by light microscopy. Observations on movement and morphology were also recorded. A negative control (0.1% DMSO) and positive control (PZQ; 10 μM in 0.1% DMSO) were included in each experiment, and each experiment was repeated in triplicate for validation. For compounds that caused complete detachment in replicate experiments, the treatment was expanded to three concentrations (10 μM, 5 μM, and 1 μM) following the same treatment schedule and controls as detailed above. […] Each titration experiment was performed in triplicate according to the treatment regimen described above, using DMSO and PZQ as appropriate controls. Morphologies and motility were assessed by light microscopy, and dose-response curves were calculated using the primary readout of parasite attachment to tissue culture substrate in GraphPad Prism. […]
[…] Values were calculated using Prism.

[1] = target: S. mansoni p97 (Smp_018240) (Schistosoma mansoni, UniProt G4M0P7); experiment: biochemical; details: for Fold Selectivity: H. sapiens vs S. mansoni p97 IC50; for Fold Selectivity / IC50: Suppl. Fig. 9C; for IC50: Sm p97, 100 μM – 1 nM, read-out: S. mansoni IC50; for activity on the enzyme: schistosome p97
Procedure: E. coli BL21 (DE3) containing the desired plasmid were grown in LB medium containing […] kanamycin while shaking at 37 °C to an OD600 of 0.6–0.8. The temperature was reduced to 18°C and 0.8 mM isopropyl-beta-D-thiogalactopyranoside (IPTG) was added. The bacterial culture was harvested 16hr later by centrifugation. The resulting pellet was suspended in 60 mL lysis buffer/2L bacterial culture [20 mM Tris (pH 7.4), 300 mM NaCl, 5 mM MgCl2, 20 mM imidazole, 1% Triton X-100, 1 mg/mL lysozyme, 10% glycerol, 3 mM β-mercaptoethanol, 0.2 mM PMSF, and protease inhibitor tablet (Roche)]. […] The lysate was centrifuged at 40,000 × rpm for 35 min at 4°C. The resulting supernatant was incubated with Ni-NTA beads equilibrated to lysis buffer for 1 hr at 4°C before being loaded onto a gravity column. The bead bed was washed with wash buffer [20 mM Tris (pH 7.4), 500 mM NaCl, 5 mM MgCl2, 40 mM imidazole, 0.05% Triton X-100, 10% glycerol, 3 mM β-mercaptoethanol, 0.2 mM PMSF, 0.001 mg/mL Aprotinin, and 0.002 mg/mL Leupeptin], then eluted in the same buffer with 250 mM imidazole in wash buffer. Fractions containing p97 were concentrated using Pierce Protein Concentrators (100k MWCO) and loaded onto a gel-filtration column (Superdex 200PG) and eluted using SEC buffer [20 mM Tris (pH 7.4), 180 mM NaCl, 5 mM MgCl2, and 10% glycerol] at 0.5 mL/min flow rate on a BioRad NGC Chromatography System. Fractions corresponding to an apparent molecular weight of 500 – 600 kDa were collected and analyzed by 4–20% SDS/PAGE to evaluate purity. Concentration was determined using a BSA standard. Fractions containing purified protein were aliquoted, snap frozen in liquid nitrogen, and stored at −80 °C until use.
For manual ATP consumption assays, 1 μM p97 was incubated with 1% DMSO or inhibitor (1% DMSO final) in assay buffer [50 mM Tris (pH 7.5), 20 mM MgCl2, 1 mM EDTA, 0.5 mM tris(2-carboxyethyl)phosphine (TCEP)] for 5 minutes prior to the addition of 20 μM ATP in a 384-well plate for a total reaction volume of 10 μL, and a final concentration of 500nM enzyme and 10 μM ATP. The reaction was allowed to proceed for 50 minutes at room temperature before adding equivalent volume of Kinase-Glo Plus reagent (Promega), and a further incubation of 10 minutes in the dark.
IC50 values were calculated using GraphPad Prism.

H. sapiens p97 (P55072) = target: T1, H. sapiens p97 (P55072) (Homo sapiens, UniProt P55072); experiment: p97 ATPase activity, ATP consumption assay (Kinase-Glo), IC50 / counter screen; format: biochemical; details: Hs p97; 100 μM – 1 nM; Suppl. Fig. 9C
T1 construct: 6xHis (C); made in house; host or cells: E. coli BL21 (DE3)

HepG2 cells = experiment: HepG2 cytotoxicity assay (Cell Titer Glo 2.0); format: cell-based, human; details: Homo sapiens
Procedure: HepG2 cells (ATCC) were plated at 2500 cells/well in 50 μL/well, dispersing cells using a 25g needle to break up clumps prior to plating. Plates were incubated for 24hr at 37C, 5% CO2. Following 24hr, 50 μL media containing 0.6% DMSO was added to a set of wells on one plate. The plate and Cell Titer Glo 2.0 reagent were brought to RT. A T=0 read was taken by adding 40 μL reagent/well, rocking the plate at 100 rpm for 2 min, then reading luminescence ~10 min later. […] 50 μL 2x concentrated compound was added to wells containing cells in 50 μL 24 hr after plating. Concentrations were tested in triplicate at following values: 30, 10, 3.3, 1.1, 0.37, 0.12, and 0.04 μM. Plates were incubated for 72 hr at 37C, 5% CO2. Following equilibration to room temperature, 40 μL undiluted reagent was added to each well, the plate rocked at 100 rpm for 2 min and then read for luminescent signal ~10 min later.
Values are plotted in excel and the 50% point determined by interpolation. Values were revisualized in Prism.

[2] = adult parasites, fraction of worms attached, 72 hours of drug treatment, in culture until D5, 50 μM - 10 nM, Suppl. Fig. 9C, read-out: S. mansoni EC50
[3] = adult worms, MEK1 inhibitor, read-out: EC50

T1 sequence (P55072 whole entry): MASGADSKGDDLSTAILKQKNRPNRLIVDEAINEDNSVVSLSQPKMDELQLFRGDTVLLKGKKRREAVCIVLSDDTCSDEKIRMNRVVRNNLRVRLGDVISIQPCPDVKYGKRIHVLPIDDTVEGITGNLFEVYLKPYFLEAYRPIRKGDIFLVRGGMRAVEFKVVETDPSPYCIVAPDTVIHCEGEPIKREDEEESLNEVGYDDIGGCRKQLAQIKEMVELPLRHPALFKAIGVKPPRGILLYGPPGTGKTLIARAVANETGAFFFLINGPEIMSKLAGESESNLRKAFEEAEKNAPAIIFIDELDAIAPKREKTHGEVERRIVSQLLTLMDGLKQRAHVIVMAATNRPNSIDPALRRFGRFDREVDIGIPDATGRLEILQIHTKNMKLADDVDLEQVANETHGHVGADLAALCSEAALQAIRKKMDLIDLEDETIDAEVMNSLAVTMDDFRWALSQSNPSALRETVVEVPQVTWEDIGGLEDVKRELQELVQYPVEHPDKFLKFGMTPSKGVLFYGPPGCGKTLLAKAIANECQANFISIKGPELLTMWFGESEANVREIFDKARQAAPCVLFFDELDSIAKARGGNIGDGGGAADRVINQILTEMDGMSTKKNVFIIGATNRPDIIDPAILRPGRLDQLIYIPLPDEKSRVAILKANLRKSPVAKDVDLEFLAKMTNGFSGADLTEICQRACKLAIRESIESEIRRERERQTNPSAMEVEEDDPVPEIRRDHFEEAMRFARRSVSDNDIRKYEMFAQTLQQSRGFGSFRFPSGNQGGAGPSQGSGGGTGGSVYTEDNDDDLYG
S. mansoni p97 (Smp_018240), sequence (G4M0P7 entry or part of it): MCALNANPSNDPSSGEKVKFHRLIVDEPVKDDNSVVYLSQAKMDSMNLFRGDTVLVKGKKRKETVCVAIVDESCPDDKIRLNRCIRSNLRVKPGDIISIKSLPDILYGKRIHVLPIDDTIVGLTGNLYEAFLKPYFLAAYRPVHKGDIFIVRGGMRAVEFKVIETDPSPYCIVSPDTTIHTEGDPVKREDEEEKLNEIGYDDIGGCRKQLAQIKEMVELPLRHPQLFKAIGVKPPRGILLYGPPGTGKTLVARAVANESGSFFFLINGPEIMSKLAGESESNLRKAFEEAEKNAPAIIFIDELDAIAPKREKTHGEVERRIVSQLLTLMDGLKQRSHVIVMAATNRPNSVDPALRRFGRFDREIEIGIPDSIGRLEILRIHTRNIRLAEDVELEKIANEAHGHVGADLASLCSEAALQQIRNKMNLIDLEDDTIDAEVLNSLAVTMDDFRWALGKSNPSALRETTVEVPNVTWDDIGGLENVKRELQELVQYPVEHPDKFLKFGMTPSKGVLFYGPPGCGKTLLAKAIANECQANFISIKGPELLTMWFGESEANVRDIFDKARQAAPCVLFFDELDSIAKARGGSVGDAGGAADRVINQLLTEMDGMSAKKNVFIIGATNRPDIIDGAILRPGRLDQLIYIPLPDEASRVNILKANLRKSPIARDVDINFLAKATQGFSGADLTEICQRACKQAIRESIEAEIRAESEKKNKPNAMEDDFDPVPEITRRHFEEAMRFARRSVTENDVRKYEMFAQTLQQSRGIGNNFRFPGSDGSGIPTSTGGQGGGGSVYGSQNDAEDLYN

SMILES | EC50 (adult S. mansoni worms; [2]) [µM] | effect on adult worms (adult S. mansoni worms; 10 μM) | Fold Selectivity [1] | IC50 [1] [nM] | activity on the enzyme [1] | IC50 (H. sapiens p97 (P55072)) [nM] | further results
COc1ccc(C#CC(=O)Nc2ccc3oc(-c4ccccn4)nc3c2)cc1 [Compound 734, 3-(4-methoxyphenyl)-N-(2-(pyridin-2-yl)benzo[d]oxazol-5-yl)propiolamide] | 7 | decreased activity on the worms | 1.7 | 48000 ± 2600 | decreased potency on the enzyme | 83000 ± 6500 | 
Cc1ccnc(-c2nc3cc(NC(=O)C#Cc4ccncc4)ccc3o2)c1 [Compound 805, N-(2-(4-methylpyridin-2-yl)benzo[d]oxazol-5-yl)-3-(pyridin-4-yl)propiolamide] | 2 |  | 0.80 | 170 ± 92 |  | 140 ± 78 | GI50 (HepG2 cells; HepG2, 72 h): 1200 nM; IC50 (HepG2 cells; HepG2, 72 h): 1600 nM; GI50 (HepG2 cells; HepG2, read-out: HepG2 GI50): 1200 nM; IC50 (HepG2 cells; HepG2, read-out: HepG2 IC50): 1600 nM
CN(C)CCc1nnc2cc(-c3ccccc3)c3cc(Cl)ccc3n12 [PF-9366, reference compound] |  |  |  |  |  |  | EC50 (adult S. mansoni worms): 43 µM
Cc1cccc(-c2nc3cc(NC(=O)C#Cc4ccncc4)ccc3o2)n1 [Compound 807, N-(2-(6-methylpyridin-2-yl)benzo[d]oxazol-5-yl)-3-(pyridin-4-yl)propiolamide] | 1.8 |  | 0.70 | 670 ± 170 |  | 490 ± 57 | GI50 (HepG2 cells; HepG2, 72 h): 1100 nM; IC50 (HepG2 cells; HepG2, 72 h): 1400 nM; GI50 (HepG2 cells; HepG2, read-out: HepG2 GI50): 1100 nM; IC50 (HepG2 cells; HepG2, read-out: HepG2 IC50): 1400 nM
Nc1nc(=O)n(-c2ccccc2Cl)c2nc(C(F)(F)F)ccc12 [IDE397, reference compound] |  |  |  |  |  |  | EC50 (adult S. mansoni worms): > 50 µM
O=C(C#Cc1ccc(Cl)cc1)Nc1ccc2oc(-c3ccccn3)nc2c1 [Compound 736, 3-(4-chlorophenyl)-N-(2-(pyridin-2-yl)benzo[d]oxazol-5-yl)propiolamide] | 12 | decreased activity on the worms | 1.1 | 5900 ± 1300 | decreased potency on the enzyme | 6700 ± 55 | 
CC(=O)Nc1cccc(-n2c(=O)n(C3CC3)c(=O)c3c(Nc4ccc(I)cc4F)n(C)c(=O)c(C)c32)c1 [Trametinib, reference compound] |  |  |  |  |  |  | EC50 (adult S. mansoni worms; [3]): 0.65 µM
O=C(NOC[C@H](O)CO)c1ccc(F)c(F)c1Nc1ccc(I)cc1F [Mirdametinib, reference compound] |  |  |  |  |  |  | EC50 (adult S. mansoni worms; [3]): > 50 µM
Cc1ccc(-c2nc3cc(NC(=O)C#Cc4ccncc4)ccc3o2)nc1 [Compound 806, N-(2-(5-methylpyridin-2-yl)benzo[d]oxazol-5-yl)-3-(pyridin-4-yl)propiolamide] | 3.2 |  | 1.1 | 470 ± 170 |  | 510 ± 160 | GI50 (HepG2 cells; HepG2, 72 h): 1500 nM; IC50 (HepG2 cells; HepG2, 72 h): 1800 nM; GI50 (HepG2 cells; HepG2, read-out: HepG2 GI50): 1500 nM; IC50 (HepG2 cells; HepG2, read-out: HepG2 IC50): 1800 nM
Cc1cccnc1-c1nc2cc(NC(=O)C#Cc3ccncc3)ccc2o1 [Compound 804, N-(2-(3-methylpyridin-2-yl)benzo[d]oxazol-5-yl)-3-(pyridin-4-yl)propiolamide] | 0.76 |  | 0.70 | 190 ± 63 |  | 140 ± 62 | GI50 (HepG2 cells; HepG2, 72 h): 930 nM; IC50 (HepG2 cells; HepG2, 72 h): 1200 nM; GI50 (HepG2 cells; HepG2, read-out: HepG2 GI50): 930 nM; IC50 (HepG2 cells; HepG2, read-out: HepG2 IC50): 1200 nM
O=C(C#CC1CC1)Nc1ccc2oc(-c3ccccn3)nc2c1 [Compound 732, 3-cyclopropyl-N-(2-(pyridin-2-yl)benzo[d]oxazol-5-yl)propiolamide] | 1.3 | still active on worms |  | > 100000 | abolishing activity on the enzyme |  | 
O=C(C#Cc1cccnc1)Nc1ccc2oc(-c3ccccn3)nc2c1 [Compound 738, N-(2-(pyridin-2-yl)benzo[d]oxazol-5-yl)-3-(pyridin-3-yl)propiolamide] | 3.5 | death of the parasites | 1.9 | 420 ± 57 |  | 780 ± 140 | time to detachment of adult worms in culture (adult S. mansoni worms; 10 μM): ≤ 24 h
O=C(N[C@@H](C1CC1)C(F)(F)F)c1cc(-c2cnn3cc(-c4ccc(F)cc4)cnc23)cs1 [ULK-101, reference compound] |  |  |  |  |  |  | time in which inhibitor killed parasites (adult S. mansoni worms; initial concentration of 10 μM): ≤ 24 h
O=C(C#Cc1cccc(Cl)c1)Nc1ccc2oc(-c3ccccn3)nc2c1 [Compound 735, 3-(3-chlorophenyl)-N-(2-(pyridin-2-yl)benzo[d]oxazol-5-yl)propiolamide] | 4.2 | still active on worms | 0.70 | 11000 ± 470 | abolishing activity on the enzyme | 7300 ± 660 | 
O=C(C#Cc1ccccn1)Nc1ccc2oc(-c3ccccn3)nc2c1 [Compound 737, 3-(pyridin-2-yl)-N-(2-(pyridin-2-yl)benzo[d]oxazol-5-yl)propiolamide] | 22 | decreased activity on the worms | 4.3 | 3000 ± 410 | decreased potency on the enzyme | 13000 ± 2200 | 
